The target in assay [1] is T1, wild-type human CDK3 (Homo sapiens, UniProt Q00526).
T1 construct: Full-length cDNAs of wild-type human CDK3; expressed in transfected cells; host or cells: MDA-MB-157 breast carcinoma cells, lentiviral vector pHIV-dTomato
Put plainly: Cell-based assay for CDK3 inhibition: fraction of Tomato+ MDA-MB-157 cells infected with wild-type CDK3-expressing lentivirus.
Protocol: MDA-MB-157 cells were cultured in RPMI with 10% FBS+PS 1× and Glu 1×.
In the experiment shown in FIG. 2, MDA-MB-157 cells were plated at 10^5 cells per well of a 6-well plate and infected with 1 ml of lentiviral stocks expressing wild-type CDK3 or E195D CDK3 mutant, with 1× polybrene solution. 24 hrs post-infection, the media were changed to virus-free polybrene-free media. 8 days post-infection (FIG. 2) or 23 days post-infection (FIG. 2), the samples were immediately analyzed for Tomato (red fluorescent marker carried in the vector) fluorescence using Becton-Dickinson LSRII flow cytometer. The fraction of the infected cells was defined as the percentage of Tomato+cells.
In this experiment, MDA-MB-157 cells were plated at 5×10^5 cells per P100 plate. Cells were infected with 5 ml of media supernatant containing the wild-type CDK3 lentivirus, with 1× polybrene solution. 24 hrs post-infection, the media were changed to virus-free polybrene-free media. 48 hrs post-infection, cells were replated into 24-well plates, at 25,000 cells per well. The culture media (1 ml volume) in each well contained the CDK3 inhibitor SNX9-1-20 at 2, 1.75, 1.5, 1.25, 1, 0.9, 0.75, 0.5, 0.35, 0.2 and 0 μM (DMSO 0.1%), in duplicates. […] 4′,6-diamidino-2-phenylindole (DAPI) was added to the final concentration of 1 μg/ml and the samples were analyzed for DAPI and Tomato fluorescence using the flow cytometer.

For assay [2], the target named is T2, wild-type human CDK2 (Homo sapiens, UniProt P24941).
T2 construct: Full-length cDNAs of wild-type human CDK2 conjugated with a HA tag; expressed in transfected cells; host or cells: MDA-MB-157 breast carcinoma cells, lentiviral vector pHIV-dTomato
The experiment in a line: Cell-based assay for CDK2 inhibition: fraction of Tomato+ MDA-MB-157 cells infected with wild-type CDK2-expressing lentivirus.
Protocol: MDA-MB-157 cells were cultured in RPMI with 10% FBS+PS 1X and Glu 1X.
In this experiment, MDA-MB-157 cells were plated at 5×10^5 cells per P100 plate. Cells were infected with 5 ml of media supernatant containing the wild-type of both CDK3 and CDK2 lentivirus, with 1 × polybrene solution. 24 hrs post-infection, the media were changed to virus-free polybrene-free media. 48 hrs post-infection, cells were replated into 24-well plates, at 25,000 cells per well. […] On day 5 after plating, the cells were harvested, centrifuged, suspended in RPMI and aliquoted at 200 μl per well into 96-well plates. 4′,6-diamidino-2-phenylindole (DAPI) was added to the final concentration of 1 μg/ml and the samples were analyzed for DAPI and Tomato fluorescence using the flow cytometer.

The record followed here is patent publication US10584369B2, “Cell-based methods for measuring activity of a protein inhibitor” (priority 2013, dated 2020).

Regarding `CC(C)[C@H](CO)Nc1nc(Nc2cccc(Cl)c2)c2ncn(C(C)C)c2n1` [Purvalanol-A, Purvalanol A], in assay [1] (1.6 μM inhibitor, day 5 after plating, Example 2 (without inhibitor: 48.85% SNX9-1-20 experiment, 14.8% Purvalanol-A experiment)), the “fraction of infected (Tomato+) cells, wild-type CDK3 lentivirus” value was 66.5%. For the same compound, the EC50 in assay [1] (Example 2, FIG. 4 and FIG. 5, day 5, read-out: concentration producing half-maximal effect on the increase in the fraction of cells infected with the wild-type CDK3 lentivirus) was 600 nM; in assay [2] (Example 2, FIG. 5, day 5, read-out: concentration producing half-maximal effect on the increase in the fraction of infected cells (printed: wild-type CDK3 lentivirus; follows the CDK2 result)) it was 200 nM. Moreover, in assay [2] (1.6 μM inhibitor, day 5 after plating, 25.5% in the absence of inhibitor, FIG. 5), the “fraction of wild-type CDK2 infected (Tomato+) cells” value was 65.25%.
